{"source": "paper PMC6429214", "about": "“Design, Synthesis and Biological Evaluation of Isoxazole-Based CK1 Inhibitors Modified with Chiral Pyrrolidine Scaffolds” (Molecules, 2019)", "test_in_all_cases": "33PanQinase panel", "assay_type_in_all_cases": "biochemical", "key": {"ACV-R1B": {"target": "T1, ACV-R1B (Homo sapiens, UniProt P36896)", "T1 construct": "purchased ProQinase", "conditions": "read-out: Residual Activity (%)", "outline": "(§1)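 1 µM inhibitor; 1% DMSO final; radiometric 33P activity read; result = % residual activity vs DMSO ctrl; 320 wt kinases screened.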"}, "ACV-R2B": {"target": "T2, ACV-R2B (Homo sapiens, UniProt Q13705)", "T2 construct": "purchased ProQinase", "conditions": "read-out: Residual Activity (%)", "outline": "as §1"}, "AKT3 aa106-479": {"target": "T3, AKT3 aa106-479 (Homo sapiens, UniProt Q9Y243)", "T3 construct": "purchased ProQinase", "conditions": "AKT3 aa106-479, 1 µM; read-out: Residual Activity (%)", "outline": "as §1"}, "CDK1/CycA2": {"target": "T4, CDK1/CycA2 (Homo sapiens, UniProt P06493)", "T4 construct": "purchased ProQinase", "conditions": "CDK1/CycA2, 1 µM; read-out: Residual Activity (%)", "outline": "as §1"}, "DCAMKL2": {"target": "T5, DCAMKL2 (Homo sapiens, UniProt Q8N568)", "T5 construct": "purchased ProQinase", "conditions": "DCAMKL2, 1 µM; read-out: Residual Activity (%)", "outline": "as §1"}, "DYRK1B": {"target": "T6, DYRK1B (Homo sapiens, UniProt Q9Y463)", "T6 construct": "purchased ProQinase", "T6 sequence (Q9Y463 whole entry)": "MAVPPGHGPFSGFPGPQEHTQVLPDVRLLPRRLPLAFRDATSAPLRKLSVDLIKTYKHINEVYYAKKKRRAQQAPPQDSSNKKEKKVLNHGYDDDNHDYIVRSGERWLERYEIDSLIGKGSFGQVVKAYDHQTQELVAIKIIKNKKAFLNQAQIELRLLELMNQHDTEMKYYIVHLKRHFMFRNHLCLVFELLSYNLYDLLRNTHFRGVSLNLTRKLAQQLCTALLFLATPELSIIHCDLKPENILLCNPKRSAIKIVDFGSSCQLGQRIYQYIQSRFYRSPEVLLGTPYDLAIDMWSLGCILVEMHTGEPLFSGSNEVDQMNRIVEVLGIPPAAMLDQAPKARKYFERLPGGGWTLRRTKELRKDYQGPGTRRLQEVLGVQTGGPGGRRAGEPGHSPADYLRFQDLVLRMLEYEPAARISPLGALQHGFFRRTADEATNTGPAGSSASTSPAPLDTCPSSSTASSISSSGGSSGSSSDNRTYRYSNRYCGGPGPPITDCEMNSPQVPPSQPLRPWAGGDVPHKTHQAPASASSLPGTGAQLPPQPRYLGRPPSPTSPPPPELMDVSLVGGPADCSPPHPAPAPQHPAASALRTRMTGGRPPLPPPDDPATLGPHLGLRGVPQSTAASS", "conditions": "read-out: Residual Activity (%)", "outline": "as §1"}, "EPHA3": {"target": "T7, EPHA3 (Homo sapiens, UniProt P29320)", "T7 construct": "purchased ProQinase", "conditions": "EPHA3, 1 µM; read-out: Residual Activity (%)", "outline": "as §1"}, "EPHA4": {"target": "T8, EPHA4 (Homo sapiens, UniProt P54764)", "T8 construct": "purchased ProQinase", "T8 sequence (P54764 20-986)": "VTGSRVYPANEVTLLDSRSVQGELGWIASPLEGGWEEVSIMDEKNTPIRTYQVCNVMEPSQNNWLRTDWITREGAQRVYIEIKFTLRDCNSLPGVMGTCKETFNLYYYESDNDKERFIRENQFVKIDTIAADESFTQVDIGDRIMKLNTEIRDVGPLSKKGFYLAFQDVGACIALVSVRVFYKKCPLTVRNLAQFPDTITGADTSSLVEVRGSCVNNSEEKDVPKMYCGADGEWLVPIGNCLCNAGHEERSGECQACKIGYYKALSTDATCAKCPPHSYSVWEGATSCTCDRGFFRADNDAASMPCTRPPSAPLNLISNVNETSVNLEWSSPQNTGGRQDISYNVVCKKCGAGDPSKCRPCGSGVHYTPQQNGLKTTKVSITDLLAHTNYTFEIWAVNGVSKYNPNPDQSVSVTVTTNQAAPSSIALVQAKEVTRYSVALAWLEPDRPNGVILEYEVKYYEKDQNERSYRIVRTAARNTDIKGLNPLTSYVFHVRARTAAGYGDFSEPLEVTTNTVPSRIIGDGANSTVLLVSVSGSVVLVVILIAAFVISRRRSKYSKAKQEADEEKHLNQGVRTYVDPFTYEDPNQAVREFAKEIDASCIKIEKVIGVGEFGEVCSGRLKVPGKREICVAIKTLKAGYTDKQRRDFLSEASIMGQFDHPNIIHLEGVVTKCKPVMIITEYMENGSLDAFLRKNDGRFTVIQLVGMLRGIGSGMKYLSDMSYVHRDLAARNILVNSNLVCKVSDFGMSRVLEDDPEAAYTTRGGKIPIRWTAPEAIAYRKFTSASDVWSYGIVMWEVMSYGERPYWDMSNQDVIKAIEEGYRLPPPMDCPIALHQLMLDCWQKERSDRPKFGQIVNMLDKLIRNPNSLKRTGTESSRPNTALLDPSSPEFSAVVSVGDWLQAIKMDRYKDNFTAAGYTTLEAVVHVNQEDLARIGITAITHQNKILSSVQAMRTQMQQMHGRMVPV", "conditions": "EPHA4, 1 µM; read-out: Residual Activity (%)", "outline": "as §1"}, "ERBB2": {"target": "T9, ERBB2 (Homo sapiens, UniProt P04626)", "T9 construct": "purchased ProQinase", "conditions": "ERBB2, 1 µM; read-out: Residual Activity (%)", "outline": "as §1"}, "FGF-R3": {"target": "T10, FGF-R3 (Homo sapiens, UniProt P22607)", "T10 construct": "purchased ProQinase", "conditions": "FGF-R3, 1 µM; read-out: Residual Activity (%)", "outline": "as §1"}, "GRK2": {"target": "T11, GRK2 (Homo sapiens, UniProt P25098)", "T11 construct": "purchased ProQinase", "conditions": "GRK2, 1 µM; read-out: Residual Activity (%)", "outline": "as §1"}, "GSK3-beta": {"target": "T12, GSK3-beta (Homo sapiens, UniProt P49841)", "T12 construct": "purchased ProQinase", "T12 sequence (P49841 whole entry)": "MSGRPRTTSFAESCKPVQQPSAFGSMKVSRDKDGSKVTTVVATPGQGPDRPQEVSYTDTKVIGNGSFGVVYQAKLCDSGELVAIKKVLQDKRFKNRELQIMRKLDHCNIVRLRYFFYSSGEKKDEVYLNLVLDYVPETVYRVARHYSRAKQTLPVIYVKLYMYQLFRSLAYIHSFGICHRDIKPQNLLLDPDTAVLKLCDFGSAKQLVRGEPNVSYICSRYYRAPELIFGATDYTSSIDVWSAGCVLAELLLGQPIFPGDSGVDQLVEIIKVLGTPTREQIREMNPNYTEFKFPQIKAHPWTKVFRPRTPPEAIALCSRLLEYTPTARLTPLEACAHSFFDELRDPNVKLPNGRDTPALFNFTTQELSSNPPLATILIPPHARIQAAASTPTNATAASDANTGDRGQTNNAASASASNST", "conditions": "read-out: Residual Activity (%)", "outline": "as §1"}, "LCK": {"target": "T13, LCK (Homo sapiens, UniProt P06239)", "T13 construct": "purchased ProQinase", "T13 sequence (P06239 whole entry)": "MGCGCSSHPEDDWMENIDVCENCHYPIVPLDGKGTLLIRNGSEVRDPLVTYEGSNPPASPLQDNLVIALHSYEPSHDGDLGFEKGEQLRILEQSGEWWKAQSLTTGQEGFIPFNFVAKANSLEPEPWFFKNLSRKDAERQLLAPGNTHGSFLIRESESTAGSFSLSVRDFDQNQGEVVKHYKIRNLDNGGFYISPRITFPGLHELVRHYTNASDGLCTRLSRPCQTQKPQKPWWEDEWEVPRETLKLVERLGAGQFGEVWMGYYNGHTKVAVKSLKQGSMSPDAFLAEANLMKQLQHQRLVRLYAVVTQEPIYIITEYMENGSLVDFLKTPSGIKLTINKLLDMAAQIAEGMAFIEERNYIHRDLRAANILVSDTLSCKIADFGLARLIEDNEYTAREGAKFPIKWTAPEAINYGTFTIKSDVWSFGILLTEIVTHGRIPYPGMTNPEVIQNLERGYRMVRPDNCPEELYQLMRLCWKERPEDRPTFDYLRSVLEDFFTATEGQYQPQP", "conditions": "read-out: Residual Activity (%)", "outline": "as §1"}, "MAPKAPK2": {"target": "T14, MAPKAPK2 (Homo sapiens, UniProt P49137)", "T14 construct": "purchased ProQinase", "conditions": "MAPKAPK2, 1 µM; read-out: Residual Activity (%)", "outline": "as §1"}, "MEKK2": {"target": "T15, MEKK2 (Homo sapiens, UniProt Q9Y2U5)", "T15 construct": "purchased ProQinase", "T15 sequence (Q9Y2U5 whole entry)": "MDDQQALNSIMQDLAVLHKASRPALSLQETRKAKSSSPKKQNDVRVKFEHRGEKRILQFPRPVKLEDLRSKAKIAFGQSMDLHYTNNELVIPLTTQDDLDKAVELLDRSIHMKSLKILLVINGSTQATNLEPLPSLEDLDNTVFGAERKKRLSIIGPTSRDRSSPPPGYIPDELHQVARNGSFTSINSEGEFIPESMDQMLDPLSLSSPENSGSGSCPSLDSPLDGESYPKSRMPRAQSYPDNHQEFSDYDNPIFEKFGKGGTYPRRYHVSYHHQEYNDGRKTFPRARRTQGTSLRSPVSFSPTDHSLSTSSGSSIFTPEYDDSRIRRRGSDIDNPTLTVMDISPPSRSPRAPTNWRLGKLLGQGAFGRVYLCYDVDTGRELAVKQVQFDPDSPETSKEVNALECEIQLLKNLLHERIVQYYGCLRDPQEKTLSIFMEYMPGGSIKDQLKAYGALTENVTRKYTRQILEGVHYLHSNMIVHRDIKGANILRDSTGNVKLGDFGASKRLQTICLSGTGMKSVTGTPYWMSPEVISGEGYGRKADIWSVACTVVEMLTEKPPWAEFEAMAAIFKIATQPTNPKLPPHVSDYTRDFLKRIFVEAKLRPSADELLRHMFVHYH", "conditions": "MEKK2, 1 µM; read-out: Residual Activity (%)", "outline": "as §1"}, "MST3": {"target": "T16, MST3 (Homo sapiens, UniProt Q9Y6E0)", "T16 construct": "purchased ProQinase", "conditions": "MST3, 1 µM; read-out: Residual Activity (%)", "outline": "as §1"}, "NEK1": {"target": "T17, NEK1 (Homo sapiens, UniProt Q96PY6)", "T17 construct": "purchased ProQinase", "conditions": "NEK1, 1 µM; read-out: Residual Activity (%)", "outline": "as §1"}, "PBK": {"target": "T18, PBK (Homo sapiens, UniProt Q96KB5)", "T18 construct": "purchased ProQinase", "T18 sequence (Q96KB5 whole entry)": "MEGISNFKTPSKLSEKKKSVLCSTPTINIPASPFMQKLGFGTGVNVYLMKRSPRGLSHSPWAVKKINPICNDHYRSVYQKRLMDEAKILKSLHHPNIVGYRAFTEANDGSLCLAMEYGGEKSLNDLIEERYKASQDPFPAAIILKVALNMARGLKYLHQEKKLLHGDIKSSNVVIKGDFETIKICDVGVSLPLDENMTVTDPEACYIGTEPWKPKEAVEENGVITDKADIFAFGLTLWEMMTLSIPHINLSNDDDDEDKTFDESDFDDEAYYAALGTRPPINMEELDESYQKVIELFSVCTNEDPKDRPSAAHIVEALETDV", "conditions": "read-out: Residual Activity (%)", "outline": "as §1"}, "PKC-iota": {"target": "T19, PKC-iota (Homo sapiens, UniProt P41743)", "T19 construct": "purchased ProQinase", "conditions": "read-out: Residual Activity (%)", "outline": "as §1"}, "PKC-zeta": {"target": "T20, PKC-zeta (Homo sapiens, UniProt Q05513)", "T20 construct": "purchased ProQinase", "conditions": "read-out: Residual Activity (%)", "outline": "as §1"}, "RPS6KA2": {"target": "T21, RPS6KA2 (Homo sapiens, UniProt Q15349)", "T21 construct": "purchased ProQinase", "conditions": "RPS6KA2, 1 µM; read-out: Residual Activity (%)", "outline": "as §1"}, "STK39": {"target": "T22, STK39 (Homo sapiens, UniProt Q9UEW8)", "T22 construct": "purchased ProQinase", "conditions": "STK39, 1 µM; read-out: Residual Activity (%)", "outline": "as §1"}, "TGFB-R1": {"target": "T23, TGFB-R1 (Homo sapiens, UniProt P36897)", "T23 construct": "purchased ProQinase", "conditions": "TGFB-R1, 1 µM; read-out: Residual Activity (%)", "outline": "as §1"}, "TRK-C": {"target": "T24, TRK-C (Homo sapiens, UniProt Q16288)", "T24 construct": "purchased ProQinase", "conditions": "read-out: Residual Activity (%)", "outline": "as §1"}, "TXK": {"target": "T25, TXK (Homo sapiens, UniProt P42681)", "T25 construct": "purchased ProQinase", "conditions": "read-out: Residual Activity (%)", "outline": "as §1"}, "VEGF-R3": {"target": "T26, VEGF-R3 (Homo sapiens, UniProt P35916)", "T26 construct": "purchased ProQinase", "T26 sequence (P35916 25-1363)": "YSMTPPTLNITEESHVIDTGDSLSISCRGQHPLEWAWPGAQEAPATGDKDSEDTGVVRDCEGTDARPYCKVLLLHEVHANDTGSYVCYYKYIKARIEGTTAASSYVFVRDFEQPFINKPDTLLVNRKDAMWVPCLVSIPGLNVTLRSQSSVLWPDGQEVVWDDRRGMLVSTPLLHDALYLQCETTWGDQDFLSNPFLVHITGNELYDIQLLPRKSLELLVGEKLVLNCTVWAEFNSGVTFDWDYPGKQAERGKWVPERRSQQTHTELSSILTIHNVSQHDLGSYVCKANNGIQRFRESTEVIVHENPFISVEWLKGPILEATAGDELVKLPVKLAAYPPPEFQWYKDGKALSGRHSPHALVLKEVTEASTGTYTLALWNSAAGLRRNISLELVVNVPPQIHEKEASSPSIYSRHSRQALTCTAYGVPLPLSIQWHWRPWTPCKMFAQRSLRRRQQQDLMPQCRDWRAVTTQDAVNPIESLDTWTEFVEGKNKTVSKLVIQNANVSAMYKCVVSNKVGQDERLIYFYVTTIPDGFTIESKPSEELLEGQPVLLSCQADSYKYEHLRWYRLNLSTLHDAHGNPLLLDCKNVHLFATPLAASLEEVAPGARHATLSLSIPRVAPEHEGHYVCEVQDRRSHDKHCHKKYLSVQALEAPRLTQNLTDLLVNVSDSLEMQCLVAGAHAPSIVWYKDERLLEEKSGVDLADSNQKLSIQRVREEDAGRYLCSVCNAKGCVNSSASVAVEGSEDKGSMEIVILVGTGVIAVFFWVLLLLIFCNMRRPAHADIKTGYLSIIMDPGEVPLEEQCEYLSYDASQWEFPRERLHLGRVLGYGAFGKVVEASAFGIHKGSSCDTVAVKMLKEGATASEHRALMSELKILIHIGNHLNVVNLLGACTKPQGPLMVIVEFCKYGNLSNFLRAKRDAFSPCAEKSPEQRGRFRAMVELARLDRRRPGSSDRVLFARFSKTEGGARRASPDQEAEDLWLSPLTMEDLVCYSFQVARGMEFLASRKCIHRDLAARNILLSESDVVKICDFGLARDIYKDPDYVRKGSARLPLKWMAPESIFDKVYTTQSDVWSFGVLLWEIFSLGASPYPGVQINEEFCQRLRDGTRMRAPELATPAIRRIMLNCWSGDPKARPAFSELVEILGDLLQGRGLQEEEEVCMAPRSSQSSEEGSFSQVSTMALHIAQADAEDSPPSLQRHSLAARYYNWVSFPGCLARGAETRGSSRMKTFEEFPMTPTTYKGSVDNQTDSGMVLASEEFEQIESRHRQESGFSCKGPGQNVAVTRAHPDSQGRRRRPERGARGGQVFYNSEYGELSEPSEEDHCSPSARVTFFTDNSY", "conditions": "VEGF-R3, 1 µM; read-out: Residual Activity (%)", "outline": "as §1"}, "VRK1": {"target": "T27, VRK1 (Homo sapiens, UniProt Q99986)", "T27 construct": "purchased ProQinase", "conditions": "VRK1, 1 µM; read-out: Residual Activity (%)", "outline": "as §1"}, "WEE1": {"target": "T28, WEE1 (Homo sapiens, UniProt P30291)", "T28 construct": "purchased ProQinase", "conditions": "WEE1, 1 µM; read-out: Residual Activity (%)", "outline": "as §1"}, "ZAK": {"target": "T29, ZAK (Homo sapiens, UniProt Q9NYL2)", "T29 construct": "purchased ProQinase", "conditions": "read-out: Residual Activity (%)", "outline": "as §1"}, "p38-delta": {"target": "T30, p38-delta (Homo sapiens, UniProt O15264)", "T30 construct": "purchased ProQinase", "conditions": "read-out: Residual Activity (%)", "outline": "as §1"}}, "data": [{"compound": "COc1ccc(-c2cc(C(=O)Nc3cc(-c4c(-c5ccc(F)cc5)noc4C(C)C)ccn3)n(CC3NCC(O)C3O)c2)cc1", "note": "(stereo not drawn) [29d]", "values": [{"measurement": "remaining activity at 1 µM", "setting": "ACV-R1B", "value": 103, "unit": "%"}, {"measurement": "remaining activity at 1 µM", "setting": "ACV-R2B", "value": 127, "unit": "%"}, {"measurement": "remaining activity at 1 µM", "setting": "AKT3 aa106-479", "value": 95, "unit": "%"}, {"measurement": "remaining activity at 1 µM", "setting": "CDK1/CycA2", "value": 102, "unit": "%"}, {"measurement": "remaining activity at 1 µM", "setting": "DCAMKL2", "value": 86, "unit": "%"}, {"measurement": "remaining activity at 1 µM", "setting": "DYRK1B", "value": 104, "unit": "%"}, {"measurement": "remaining activity at 1 µM", "setting": "EPHA3", "value": 118, "unit": "%"}, {"measurement": "remaining activity at 1 µM", "setting": "EPHA4", "value": 100, "unit": "%"}, {"measurement": "remaining activity at 1 µM", "setting": "ERBB2", "value": 121, "unit": "%"}, {"measurement": "remaining activity at 1 µM", "setting": "FGF-R3", "value": 118, "unit": "%"}, {"measurement": "remaining activity at 1 µM", "setting": "GRK2", "value": 87, "unit": "%"}, {"measurement": "remaining activity at 1 µM", "setting": "GSK3-beta", "value": 100, "unit": "%"}, {"measurement": "remaining activity at 1 µM", "setting": "LCK", "value": 96, "unit": "%"}, {"measurement": "remaining activity at 1 µM", "setting": "MAPKAPK2", "value": 96, "unit": "%"}, {"measurement": "remaining activity at 1 µM", "setting": "MEKK2", "value": 111, "unit": "%"}, {"measurement": "remaining activity at 1 µM", "setting": "MST3", "value": 117, "unit": "%"}, {"measurement": "remaining activity at 1 µM", "setting": "NEK1", "value": 101, "unit": "%"}, {"measurement": "remaining activity at 1 µM", "setting": "PBK", "value": 89, "unit": "%"}, {"measurement": "remaining activity at 1 µM", "setting": "PKC-iota", "value": 88, "unit": "%"}, {"measurement": "remaining activity at 1 µM", "setting": "PKC-zeta", "value": 123, "unit": "%"}, {"measurement": "remaining activity at 1 µM", "setting": "RPS6KA2", "value": 93, "unit": "%"}, {"measurement": "remaining activity at 1 µM", "setting": "STK39", "value": 110, "unit": "%"}, {"measurement": "remaining activity at 1 µM", "setting": "TGFB-R1", "value": 102, "unit": "%"}, {"measurement": "remaining activity at 1 µM", "setting": "TRK-C", "value": 105, "unit": "%"}, {"measurement": "remaining activity at 1 µM", "setting": "TXK", "value": 119, "unit": "%"}, {"measurement": "remaining activity at 1 µM", "setting": "VEGF-R3", "value": 124, "unit": "%"}, {"measurement": "remaining activity at 1 µM", "setting": "VRK1", "value": 117, "unit": "%"}, {"measurement": "remaining activity at 1 µM", "setting": "WEE1", "value": 95, "unit": "%"}, {"measurement": "remaining activity at 1 µM", "setting": "ZAK", "value": 116, "unit": "%"}, {"measurement": "remaining activity at 1 µM", "setting": "p38-delta", "value": 99, "unit": "%"}]}]}
